# Data from paper PMC9322451 (Clinical Pharmacology in Drug Development, 2022).
# Read-outs that look alike come from different tables or passages of the source.
# Tests used:
# P‐gp = system: P‐gp; parameters: method as in unpublished data; details: ref unpublished data, read-out: half maximal inhibitory concentration; cited from earlier work
# CYP2C19 = system: CYP2C19; parameters: method as in unpublished data; details: ref unpublished data; cited from earlier work
# CYP2B6 = system: CYP2B6; parameters: method as in unpublished data; details: ref unpublished data; cited from earlier work
# [1] = Phase 1 part B: PK of single 40 mg oral dose, fasted vs fed (food effect); assay type: in vivo, human; details: for AUC(0-inf) / AUC(0-t) / Cmax / half-life / Tmax: human, plasma
# Description: Participants were admitted to the clinical unit the day before doses were administered on days 1 and 8 and discharged on days 2 and 9, after collection of the 36‐hour postdose PK sample. The washout period between doses was 7 days. […] After dosing, participants were required to remain upright for at least 2 hours and refrain from food and drink for at least 4 hours; water was allowed after 2 hours.
# For part B, blood sampling for PK assessments was performed following single‐dose administration on days 1 and 8 at 0 (predose), 0.25, 0.5, 1, 1.5, 2, 3, 3.5, 4, 6, 8, 10, 12, 24, 36, and 72 hours after dosing. PK parameters included Cmax, tmax, AUClast, AUC∞, CL/F, apparent volume of distribution after drug administration, and t1/2.
# The assay range was 0.250 to 150 ng/mL, with overall precision and accuracy for intra‐ and interassays of 2.2% to 5.9% and −2.7% to 0.3%, respectively.
# PK parameters were generated using noncompartmental analysis and were based on the PK population, which included all participants who received at least 1 dose of assigned treatment (safety population) and had evaluable Cmax and AUC parameters without significant protocol deviations. For part B, the PK population included participants who completed both treatment periods and had sufficient concentration data from both periods to fully derive the PK parameters.
# Estimates and 90% CIs for the differences between treatment means were computed and converted to ratios by antilog transformation. Results for the geometric mean ratio of treatments (fasted vs fed) were tabulated for Cmax, AUClast, and AUC∞.
# P‐glycoprotein (P‐gp) = system: P‐glycoprotein (P‐gp); parameters: method as in unpublished data; details: ref unpublished data; cited from earlier work
# Caco‐2 monolayers = system: Caco‐2 monolayers; parameters: method as in unpublished data; details: ref unpublished data; cited from earlier work
# [2] = system: breast cancer resistance protein; parameters: method as in unpublished data; details: ref unpublished data, read-out: half maximal inhibitory concentration; cited from earlier work
# CYP1A2 = system: CYP1A2; parameters: method as in unpublished data; details: ref unpublished data; cited from earlier work
# [3] = oral, 40 mg, Japanese n=9, fasted, least squares mean
# [4] = oral, 40 mg, Japanese n=9, fed, least squares mean
# [5] = oral, 40 mg, White n=10, fasted, least squares mean
# [6] = oral, 40 mg, White n=10, fed, least squares mean
# [7] = po, 40 mg, 40 mg single oral dose, Japanese, fasted, mean (CV%)
# [8] = po, 40 mg, 40 mg single oral dose, Japanese, fed, mean (CV%)
# [9] = po, 40 mg, 40 mg single oral dose, White, fasted, mean (CV%)
# [10] = po, 40 mg, 40 mg single oral dose, White, fed, mean (CV%)
# [11] = po, 40 mg, 40 mg single oral, fasted, Japanese
# [12] = po, 40 mg, 40 mg single oral, fasted, White
compound,measurement,setting,value
Cn1c(=O)oc2ccc(-c3ccc(C[C@@H](C#N)NC(=O)[C@@H]4CNCCCO4)cc3)cc21 [Brensocatib],IC50,P‐gp,> 11 µM
same,CYP inhibition,CYP2C19,no effect
same,CYP induction (significant inducer or not),CYP2B6,not a significant
same,effect of food on exposure,[1]; 40 mg,no effect
same,CL/F,"[1]; 40 mg single oral, fasted, Japanese",7.7 L/h
same,CL/F,"[1]; 40 mg single oral, fasted, White",6.5 L/h
same,"AUClast GMR (fed/fasted), % (90% CI)","[1]; 40 mg, Japanese n=9",98.4 (94.4‐102.5) %
same,"AUC∞ GMR (fed/fasted), % (90% CI)","[1]; 40 mg, Japanese n=9",99.2 (95.7‐102.8) %
same,"Cmax GMR (fed/fasted), % (90% CI)","[1]; 40 mg, Japanese n=9",82.4 (67.9‐99.9) %
same,Cmax lower in the fed state,"[1]; 40 mg, Japanese participants",17.6%
same,"AUClast GMR (fed/fasted), % (90% CI)","[1]; 40 mg, White n=10",101.3 (96.8‐106.0) %
same,"AUC∞ GMR (fed/fasted), % (90% CI)","[1]; 40 mg, White n=10",99.6 (94.6‐104.9) %
same,"Cmax GMR (fed/fasted), % (90% CI)","[1]; 40 mg, White n=10",101.2 (81.4‐125.9) %
same,AUC(0-inf),[1]; [3],5270 ng·h/mL
same,AUC(0-t),[1]; [3],4920 ng·h/mL
same,Cmax,[1]; [3],356 ng/mL
same,AUC(0-inf),[1]; [4],5230 ng·h/mL
same,AUC(0-t),[1]; [4],4840 ng·h/mL
same,Cmax,[1]; [4],293 ng/mL
same,AUC(0-inf),[1]; [5],6200 ng·h/mL
same,AUC(0-t),[1]; [5],5150 ng·h/mL
same,Cmax,[1]; [5],269 ng/mL
same,AUC(0-inf),[1]; [6],6180 ng·h/mL
same,AUC(0-t),[1]; [6],5210 ng·h/mL
same,Cmax,[1]; [6],272 ng/mL
same,half-life,"[1]; oral, 40 mg, fasted and fed, White, read-out: Mean t1/2 (converted)",27 to 28 h
same,Tmax,"[1]; oral, 40 mg, fasted, Japanese, read-out: median Tmax",1.3 h
same,Tmax,"[1]; oral, 40 mg, fasted, White, read-out: median Tmax",1.3 h
same,half-life,"[1]; oral, 40 mg, fed, Japanese, read-out: Mean t1/2 (converted)",18.4 h
same,Tmax,"[1]; oral, 40 mg, fed, Japanese, read-out: median Tmax",3 h
same,Tmax,"[1]; oral, 40 mg, fed, White, read-out: median Tmax",2 h
same,AUC(0-inf),[1]; [7],5470 ng·h/mL
same,AUC(0-t),[1]; [7],5010 ng·h/mL
same,Cmax,[1]; [7],352 ng/mL
same,half-life,"[1]; po, 40 mg, 40 mg single oral dose, Japanese, fasted, mean (CV%), read-out: t1/2 (converted)",19.3 h
same,Tmax,"[1]; po, 40 mg, 40 mg single oral dose, Japanese, fasted, median (range), read-out: Tmax",1.27 h
same,AUC(0-inf),[1]; [8],5490 ng·h/mL
same,AUC(0-t),[1]; [8],4980 ng·h/mL
same,Cmax,[1]; [8],297 ng/mL
same,half-life,"[1]; po, 40 mg, 40 mg single oral dose, Japanese, fed, mean (CV%), read-out: t1/2 (converted)",19.4 h
same,Tmax,"[1]; po, 40 mg, 40 mg single oral dose, Japanese, fed, median (range), read-out: Tmax",3 h
same,AUC(0-inf),[1]; [9],6680 ng·h/mL
same,AUC(0-t),[1]; [9],5480 ng·h/mL
same,Cmax,[1]; [9],301 ng/mL
same,half-life,"[1]; po, 40 mg, 40 mg single oral dose, White, fasted, mean (CV%), read-out: t1/2 (converted)",28.9 h
same,Tmax,"[1]; po, 40 mg, 40 mg single oral dose, White, fasted, median (range), read-out: Tmax",1.25 h
same,AUC(0-inf),[1]; [10],6500 ng·h/mL
same,AUC(0-t),[1]; [10],5470 ng·h/mL
same,Cmax,[1]; [10],302 ng/mL
same,half-life,"[1]; po, 40 mg, 40 mg single oral dose, White, fed, mean (CV%), read-out: t1/2 (converted)",27.5 h
same,Tmax,"[1]; po, 40 mg, 40 mg single oral dose, White, fed, median (range), read-out: Tmax",2 h
same,AUC(0-inf),[1]; [11],5180 ng·h/mL
same,AUC(0-t),[1]; [11],4820 ng·h/mL
same,Cmax,[1]; [11],338 ng/mL
same,half-life,"[1]; po, 40 mg, 40 mg single oral, fasted, Japanese, read-out: Elimination t1/2 (converted)",18.7 h
same,AUC(0-inf),[1]; [12],6200 ng·h/mL
same,AUC(0-t),[1]; [12],5150 ng·h/mL
same,Cmax,[1]; [12],269 ng/mL
same,half-life,"[1]; po, 40 mg, 40 mg single oral, fasted, White, read-out: Elimination t1/2 (converted)",28 h
same,Tmax,"[1]; po, 40 mg, 40 mg single oral, fasted, both Japanese and White participants, read-out: Tmax",1.3 h
same,substrate status,P‐glycoprotein (P‐gp),substrate
same,apparent permeability from apical side to basolateral side,Caco‐2 monolayers,9.03 × 10^–6 cm/s
same,IC50,[2],> 11 µM
same,CYP induction (significant inducer or not),CYP1A2,not a significant
